Experiment: Partitioning of pure artemisinin between hexane and aqueous ethanol (1:1 v/v), layers quantified by TLC
Assay type: physicochemical
Procedure: To select an efficient solvent for extraction of artemisinin different solvents systems were tested. For this 10 g of dry powdered leaves of Artemisia annua were extracted with methanol, 20% aqueous methanol, ethanol, 20% aqueous ethanol or hexane as a solvent individually in separate tubes. 10 ml of the solvent was taken out of the tube at 2, 4 and 6 h of incubation. The fraction was evaporated to dryness on a water bath, extract was solubilized in 2.0 ml solvent and spots (5 μl) were loaded on a TLC plate along with pure artemisinin dissolved in the respective solvent @ 1 mg/ml taken as controls. The TLC was carried out in a glass TLC tank saturated with the mobile phase hexane:diethyl ether (1:1), plates were developed to a height of 15 cm. Later plates were dried and spots were visualized by immersing the plates in a developing reagent (glacial acetic acid:sulfuric acid:anisaldehyde, 50:1:0.5), followed by heating the plate at 110° C. for 15 minutes or until pink spots of artemisinin appeared. For quantification, TLC spots corresponding to artemisinin were scanned at 540 and 610 nm dual wavelength mode of TLC scanner. It is clear from the table that pure ethanol and methanol rapidly extract the artemisinin as compared to hexane, however after a certain period of time concentration of artemisinin starts diminishing in methanol and ethanol extracts in contrast to hexane extract possibly because of decomposition or transformation of artemisinin into another unknown compound. Mixing of water in methanol caused a severe decay of artemisinin extraction. Ethanol was more efficient for extracting more artemisinin in less time period as compared to methanol and hexane both. On the basis of lower cost and rapid extraction efficiency ethanol will be a suitable solvent.
Pure artemisinin (0.2 g) was dissolved in different test tubes containing 1:1 (v/v) mixture of two non-miscible solvents, hexane and aqueous ethanol (i.e. ethanol mixed in water), where concentration of ethanol varied from 20 to 80%. After completely solubilizing the artemisinin in the mixture, two layers of hexane and ethanol were separated with the help of a separating funnel. The individual layer from different test tube was tested for the presence of artemisinin content by TLC as in example 1. The results showing the % fraction of artemisinin partitioned between the hexane and aqueous ethanolic layers separated from each tube are given in the Table -2.

[1] = Hexane:20% aqueous-ethanol (1:1 v/v)
[2] = Hexane:40% aqueous-ethanol (1:1 v/v)
[3] = Hexane:60% aqueous-ethanol (1:1 v/v)
[4] = Hexane:80% aqueous-ethanol (1:1 v/v)

C[C@@H]1CC[C@H]2[C@@H](C)C(=O)O[C@@H]3O[C@@]4(C)CC[C@@H]1[C@]32OO4 [artemisinin]
% artemisinin in ethanol layer [1]: 100% | % artemisinin in hexane layer [1]: 0% | % artemisinin in ethanol layer [2]: 90% | % artemisinin in hexane layer [2]: 10% | % artemisinin in ethanol layer [3]: 30% | % artemisinin in hexane layer [3]: 70% | % artemisinin in ethanol layer [4]: 0% | % artemisinin in hexane layer [4]: 100%
